Where a name gives a salt, the structure may show the parent alone.
These molecules were tested on Frataxin (FXN) mRNA (assay: Effect of HDAC inhibitors on frataxin (FXN) mRNA expression, qRT-PCR in compound-treated iPSC derived neuronal cells). Details: iPSC, 24 h, compound concentration of 0.625 μM, 24 h incubation, read-out: FXN mRNA fold induction.
Type: cell-based
Description: Effect of HDAC Inhibitors on Frataxin (FXN) mRNA Expression
Method: mRNA quantification of compound-treated iPSC derived neuronal cells Neuronal stem cells were cultured in Neurobasal A medium (Life technologies #10888022) supplemented with N2, B27 (Life technologies #17502-048 and #17504-044), L-glutamine (Life technologies #25030081), supplemented with 20 ng/ml EGF (R&D Systems #236-EG) and 20 ng/ml bFGF (BioPioneer # HRP-0011). Neuronal differentiation was initiated by removing growth factors and culturing cells in Neurobasal A with N2 and B27. Cells were allowed to differentiate for 16 days. HDAC inhibitory compound was then added and incubate for 24 h. RNA isolation was performed using the RNeasy Plus mini kit (QIAgen #74134) using a QIAcube instrument per manufacturer's instructions. qRT-PCR was performed using qScript One-Step SYBR Green qRT-PCR Kit (Quanta Biosciences 170-8893BR) with the following conditions: 20 minutes at 50° C., 5 minutes at 95° C., and then 40 cycles of 20 seconds at 95° C., 20 seconds at 55° C., 30 seconds at 72° C. The primer sequences to detect expression of FXN were: 5′-[…]-3′ and 5′-[…]-3′.
The data for the following compounds, for FXN mRNA fold induction at a compound concentration of 0.625 μM are shown in Table 1, where A<1, 1<B<2, 2<C<3, 3<D<5, E>5.

SMILES	fold induction at 0.625 µM
Nc1ccccc1NC(=O)c1ccc(NC2CN(CC3CCCCC3)C2)cc1 [Compound 93, N-(2-aminophenyl)-4-((1-(cyclohexylmethyl)azetidin-3-yl)amino)benzamide]	2 to 3
Nc1ccccc1NC(=O)c1ccc(N[C@H]2CCNC2)cc1 [Compound 94, (S)-N-(2-aminophenyl)-4-(pyrrolidin-3-ylamino)benzamide trihydrochloride]	1 to 2
CN1CC[C@H](Nc2ccc(C(=O)Nc3ccccc3N)cc2)C1 [Compound 95, (S)-N-(2-aminophenyl)-4-((1-methylpyrrolidin-3-yl)amino)benzamide]	1 to 2
CC(C)CN1CC[C@H](Nc2ccc(C(=O)Nc3ccccc3N)cc2)C1 [Compound 96, (S)-N-(2-aminophenyl)-4-((1-isobutylpyrrolidin-3-yl)amino)benzamide]	1 to 2
CC(C)(O)CN1CC[C@H](Nc2ccc(C(=O)Nc3ccccc3N)cc2)C1 [Compound 97, (S)-N-(2-aminophenyl)-4-((1-(2-hydroxy-2-methylpropyl)pyrrolidin-3-yl)amino)benzamide]	1 to 2
CC(C)(C)CN1CC[C@H](Nc2ccc(C(=O)Nc3ccccc3N)cc2)C1 [Compound 98, (S)-N-(2-aminophenyl)-4-((1-neopentylpyrrolidin-3-yl)amino)benzamide trihydrochloride]	2 to 3
Nc1ccccc1NC(=O)c1ccc(N[C@H]2CCN(CC3CC3)C2)cc1 [Compound 99, (S)-N-(2-aminophenyl)-4-((1-(cyclopropylmethyl)pyrrolidin-3-yl)amino)benzamide trihydrochloride]	2 to 3
CC1(CN2CC[C@H](Nc3ccc(C(=O)Nc4ccccc4N)cc3)C2)CC1 [Compound 100, (S)-N-(2-aminophenyl)-4-((1-((1-methylcyclopropyl)methyl)pyrrolidin-3-yl)amino)benzamide]	1 to 2
Nc1ccccc1NC(=O)c1ccc(N[C@H]2CCN(CC3CCCCC3)C2)cc1 [Compound 101, (S)-N-(2-aminophenyl)-4-((1-(cyclohexylmethyl)pyrrolidin-3-yl)amino)benzamide]	2 to 3
Nc1ccccc1NC(=O)c1ccc(N[C@@H]2CCNC2)cc1 [Compound 102, (R)—N-(2-aminophenyl)-4-(pyrrolidin-3-ylamino)benzamide Trihydrochloride]	2 to 3
CN1CC[C@@H](Nc2ccc(C(=O)Nc3ccccc3N)cc2)C1 [Compound 103, (R)-N-(2-aminophenyl)-4-((1-methylpyrrolidin-3-yl)amino)benzamide]	1 to 2
CC(C)CN1CC[C@@H](Nc2ccc(C(=O)Nc3ccccc3N)cc2)C1 [Compound 104, (R)-N-(2-aminophenyl)-4-((1-isobutylpyrrolidin-3-yl)amino)benzamide trihydrochloride]	2 to 3
CC(C)(O)CN1CC[C@@H](Nc2ccc(C(=O)Nc3ccccc3N)cc2)C1 [Compound 105, (R)-N-(2-aminophenyl)-4-((1-(2-hydroxy-2-methylpropyl)pyrrolidin-3-yl)amino)benzamide trihydrochloride]	2 to 3
CC(C)(C)CN1CC[C@@H](Nc2ccc(C(=O)Nc3ccccc3N)cc2)C1 [Compound 106, (R)-N-(2-aminophenyl)-4-((1-neopentylpyrrolidin-3-yl)amino)benzamide]	2 to 3
Nc1ccccc1NC(=O)c1ccc(N[C@@H]2CCN(CC3CC3)C2)cc1 [Compound 107, (R)-N-(2-aminophenyl)-4-((1-(cyclopropylmethyl)pyrrolidin-3-yl)amino)benzamide trihydrochloride]	2 to 3
CC1(CN2CC[C@@H](Nc3ccc(C(=O)Nc4ccccc4N)cc3)C2)CC1 [Compound 108, (R)-N-(2-aminophenyl)-4-((1-((1-methylcyclopropyl)methyl)pyrrolidin-3-yl)amino)benzamide]	2 to 3
Nc1ccccc1NC(=O)c1ccc(N[C@@H]2CCN(CC3CCCCC3)C2)cc1 [Compound 109, (R)-N-(2-aminophenyl)-4-((1-(cyclohexylmethyl)pyrrolidin-3-yl)amino)benzamide]	2 to 3
Nc1ccccc1NC(=O)c1ccc(NC2CCNCC2)cc1 [Compound 110, dihydrochloride]	2 to 3
CN1CCC(Nc2ccc(C(=O)Nc3ccccc3N)cc2)CC1 [Compound 111, N-(2-aminophenyl)-4-((1-methylpiperidin-4-yl)amino)benzamide]	1 to 2
CC(C)CN1CCC(Nc2ccc(C(=O)Nc3ccccc3N)cc2)CC1 [Compound 112, N-(2-aminophenyl)-4-((1-isobutylpiperidin-4-yl)amino)benzamide trihydrochloride]	1 to 2
CC1(CN2CCC(Nc3ccc(C(=O)Nc4ccccc4N)cc3)CC2)CC1 [Compound 113, N-(2-aminophenyl)-4-((1-((1-methylcyclopropyl)methyl)piperidin-4-yl)amino)benzamide trihydrochloride]	2 to 3
Nc1ccccc1NC(=O)c1ccc(NC2CCN(CC3CCCCC3)CC2)cc1 [Compound 114, N-(2-aminophenyl)-4-((1-(cyclohexylmethyl)piperidin-4-yl)amino)benzamide]	1 to 2
Nc1ccccc1NC(=O)c1ccc(OC2CCCN(C3CC3)CC2)cc1 (stereo not drawn) [Compound 123, N-(2-aminophenyl)-4-((1-cyclopropylazepan-4-yl)oxy)benzamide benzamide dihydrochloride]	1 to 2

Same assay, conditions: iPSC, 24 h, read-out: FXN mRNA fold induction, compound concentration of 0.625 μM, 24 h incubation

SMILES	fold induction at 0.625 µM
Nc1ccccc1NC(=O)c1ccc(NC2CC3CCC(C2)N3)cc1 (stereo not drawn) [Compound 115, 4-((8-azabicyclo[3.2.1]octan-3-yl)amino)-N-(2-aminophenyl)benzamide]	1 to 2
CN1C2CCC1CC(Nc1ccc(C(=O)Nc3ccccc3N)cc1)C2 (stereo not drawn) [Compound 116, N-(2-aminophenyl)-4-((8-methyl-8-azabicyclo[3.2.1]octan-3-yl)amino)benzamide trihydrochloride]	2 to 3
CC(C)CN1C2CCC1CC(Nc1ccc(C(=O)Nc3ccccc3N)cc1)C2 (stereo not drawn) [Compound 117, N-(2-aminophenyl)-4-((8-isobutyl-8-azabicyclo[3.2.1]octan-3-yl)amino)benzamide]	2 to 3
CC(C)(O)CN1C2CCC1CC(Nc1ccc(C(=O)Nc3ccccc3N)cc1)C2 (stereo not drawn) [Compound 118, N-(2-aminophenyl)-4-((8-(2-hydroxy-2-methylpropyl)-8-azabicyclo[3.2.1]octan-3-yl)amino)benzamide]	2 to 3
CC(C)(C)CN1C2CCC1CC(Nc1ccc(C(=O)Nc3ccccc3N)cc1)C2 (stereo not drawn) [Compound 119, N-(2-aminophenyl)-4-((8-neopentyl-8-azabicyclo[3.2.1]octan-3-yl)amino)benzamide]	2 to 3
Nc1ccccc1NC(=O)c1ccc(NC2CC3CCC(C2)N3CC2CC2)cc1 (stereo not drawn) [Compound 120, N-(2-aminophenyl)-4-((8-(cyclopropylmethyl)-8-azabicyclo[3.2.1]octan-3-yl)amino)benzamide trihydrochloride]	1 to 2
Nc1ccccc1NC(=O)c1ccc(NC2CC3CCC(C2)N3CC2CCCCC2)cc1 (stereo not drawn) [Compound 122, N-(2-aminophenyl)-4-((8-(cyclohexylmethyl)-8-azabicyclo[3.2.1]octan-3-yl)amino)benzamide]	2 to 3

— patent publication US10308608B2, “Histone deacetylase inhibitors” (BIOMARIN PHARMACEUTICAL INC., priority 2015, dated 2019)
